In brackets after ≈: the same amount, converted by molar mass. One block for each compound: values may come before it.
How the values were obtained:
[1] = molecular target: Tyrosine-protein kinase BTK (Mus musculus, UniProt P35991)
[2] = Clearance in rat; format: ADME, organism-based; conditions: in vivo
[3] = Oral bioavailability in rat compound administered as solution in 20% (v/v) cremophor EL and 10% (v/v) ethanol in water; format: ADME, organism-based; conditions: in vivo
hERG (KCNH2) = hERG (KCNH2) (Homo sapiens, UniProt Q12809); assay: Inhibition of human ERG at 10 uM
hERG (KCNH2), sequence (Q12809 whole entry): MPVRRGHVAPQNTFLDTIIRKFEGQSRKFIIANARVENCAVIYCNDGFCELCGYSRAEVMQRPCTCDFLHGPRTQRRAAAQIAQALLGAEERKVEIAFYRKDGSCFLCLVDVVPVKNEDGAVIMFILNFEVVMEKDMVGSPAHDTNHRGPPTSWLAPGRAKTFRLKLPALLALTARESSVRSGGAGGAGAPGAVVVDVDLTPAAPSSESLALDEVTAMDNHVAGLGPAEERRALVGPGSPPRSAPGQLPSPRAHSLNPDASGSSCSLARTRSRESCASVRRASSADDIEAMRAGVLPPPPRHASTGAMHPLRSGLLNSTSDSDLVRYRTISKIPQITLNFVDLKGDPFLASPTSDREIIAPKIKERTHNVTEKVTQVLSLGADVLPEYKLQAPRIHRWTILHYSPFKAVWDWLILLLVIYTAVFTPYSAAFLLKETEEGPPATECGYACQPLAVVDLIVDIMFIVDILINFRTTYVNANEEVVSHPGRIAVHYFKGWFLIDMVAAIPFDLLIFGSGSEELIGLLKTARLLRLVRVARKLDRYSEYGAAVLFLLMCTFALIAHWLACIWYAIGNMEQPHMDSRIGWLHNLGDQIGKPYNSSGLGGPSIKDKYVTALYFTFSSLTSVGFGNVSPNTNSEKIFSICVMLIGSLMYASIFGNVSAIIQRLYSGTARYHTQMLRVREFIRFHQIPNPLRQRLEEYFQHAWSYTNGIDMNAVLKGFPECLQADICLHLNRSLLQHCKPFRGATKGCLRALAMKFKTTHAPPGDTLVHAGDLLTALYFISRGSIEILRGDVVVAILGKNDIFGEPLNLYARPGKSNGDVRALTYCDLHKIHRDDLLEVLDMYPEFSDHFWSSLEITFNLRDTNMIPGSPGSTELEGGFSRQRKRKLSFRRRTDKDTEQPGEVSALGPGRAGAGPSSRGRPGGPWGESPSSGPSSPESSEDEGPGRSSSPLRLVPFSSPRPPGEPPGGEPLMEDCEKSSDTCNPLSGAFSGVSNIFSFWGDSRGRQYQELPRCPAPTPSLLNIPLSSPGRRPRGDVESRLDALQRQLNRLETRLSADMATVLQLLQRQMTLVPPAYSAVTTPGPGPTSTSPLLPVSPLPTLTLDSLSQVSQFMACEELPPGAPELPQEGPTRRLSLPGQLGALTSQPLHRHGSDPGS

Salmonella typhimurium [4] = assay: Toxicity in Salmonella typhimurium TA98 in presence of S9 fraction; format: organism-based; conditions: salmonella enterica subsp. enterica serovar typhimurium
Salmonella typhimurium [5] = assay: Toxicity in Salmonella typhimurium TA98 in absence of S9 fraction; format: organism-based; conditions: salmonella enterica subsp. enterica serovar typhimurium
Salmonella typhimurium [6] = assay: Toxicity in Salmonella typhimurium TA100 in presence of S9 fraction; format: organism-based; conditions: salmonella enterica subsp. enterica serovar typhimurium
Salmonella typhimurium [7] = assay: Toxicity in Salmonella typhimurium TA100 in absence of S9 fraction; format: organism-based; conditions: salmonella enterica subsp. enterica serovar typhimurium
[8] = Solubility of the compound in fasted-state simulated intestinal fluid at pH 6.8; format: ADME
[9] = Clearance in mouse; format: ADME, organism-based; conditions: in vivo
[10] = Clearance in dog; format: ADME, organism-based, Canis lupus familiaris; conditions: in vivo
[11] = Clearance in cynomolgus monkey; format: ADME, organism-based, Macaca fascicularis; conditions: in vivo
[12] = Oral bioavailability in mouse; format: ADME, organism-based; conditions: in vivo
[13] = Oral bioavailability in rat compound administered as suspension in crystalline freebase in 0.5% (w/v) methylcellulose and 0.2% (w/v) polysorbate 80 in water; format: ADME, organism-based; conditions: in vivo
[14] = Oral bioavailability in dog compound administered as solution in 60% polyethylene glycol 400 in water; format: ADME, organism-based, Canis lupus familiaris; conditions: in vivo
[15] = Oral bioavailability in dog compound administered as as suspension in crystalline freebase in 0.5% (w/v) methylcellulose and 0.2% (w/v) polysorbate 80 in water; format: ADME, organism-based, Canis lupus familiaris; conditions: in vivo
[16] = Oral bioavailability in cynomolgus monkey; format: ADME, organism-based, Macaca fascicularis; conditions: in vivo
Homo sapiens [17] = assay: Drug metabolism in healthy human plasma assessed as formation of M1 metabolite at 35 to 105 mg, po; format: ADME, organism-based; conditions: in vivo
[18] = molecular target: T1, Tyrosine-protein kinase BTK (Homo sapiens, UniProt Q06187); assay: Inhibition of BTK (unknown origin) after 1 hr by FRET assay
T1 sequence (Q06187 whole entry): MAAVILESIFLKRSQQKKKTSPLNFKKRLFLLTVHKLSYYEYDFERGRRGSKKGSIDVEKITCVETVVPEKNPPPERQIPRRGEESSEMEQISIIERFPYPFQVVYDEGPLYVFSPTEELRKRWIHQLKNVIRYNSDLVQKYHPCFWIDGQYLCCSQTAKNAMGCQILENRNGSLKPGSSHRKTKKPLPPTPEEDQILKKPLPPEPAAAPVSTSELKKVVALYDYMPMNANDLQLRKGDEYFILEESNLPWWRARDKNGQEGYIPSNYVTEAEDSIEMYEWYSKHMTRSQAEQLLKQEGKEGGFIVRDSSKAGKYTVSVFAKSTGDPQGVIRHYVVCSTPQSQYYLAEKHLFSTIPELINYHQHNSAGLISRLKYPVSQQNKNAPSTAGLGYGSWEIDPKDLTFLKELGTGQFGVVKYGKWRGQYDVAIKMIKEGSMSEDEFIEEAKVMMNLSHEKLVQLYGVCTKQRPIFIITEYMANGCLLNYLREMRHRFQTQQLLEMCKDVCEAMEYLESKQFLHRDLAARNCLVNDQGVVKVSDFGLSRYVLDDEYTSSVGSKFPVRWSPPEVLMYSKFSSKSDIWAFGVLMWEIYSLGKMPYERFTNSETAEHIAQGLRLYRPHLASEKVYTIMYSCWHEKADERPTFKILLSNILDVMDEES

[19] = molecular target: T1, Tyrosine-protein kinase BTK
Homo sapiens [20] = assay: Drug metabolism in healthy human plasma treated with GDC-0834 at 35 to 105 mg, po; format: ADME, organism-based; conditions: in vivo

Tyrosine-protein kinase BTK (Mus musculus, UniProt P35991), sequence (P35991 whole entry): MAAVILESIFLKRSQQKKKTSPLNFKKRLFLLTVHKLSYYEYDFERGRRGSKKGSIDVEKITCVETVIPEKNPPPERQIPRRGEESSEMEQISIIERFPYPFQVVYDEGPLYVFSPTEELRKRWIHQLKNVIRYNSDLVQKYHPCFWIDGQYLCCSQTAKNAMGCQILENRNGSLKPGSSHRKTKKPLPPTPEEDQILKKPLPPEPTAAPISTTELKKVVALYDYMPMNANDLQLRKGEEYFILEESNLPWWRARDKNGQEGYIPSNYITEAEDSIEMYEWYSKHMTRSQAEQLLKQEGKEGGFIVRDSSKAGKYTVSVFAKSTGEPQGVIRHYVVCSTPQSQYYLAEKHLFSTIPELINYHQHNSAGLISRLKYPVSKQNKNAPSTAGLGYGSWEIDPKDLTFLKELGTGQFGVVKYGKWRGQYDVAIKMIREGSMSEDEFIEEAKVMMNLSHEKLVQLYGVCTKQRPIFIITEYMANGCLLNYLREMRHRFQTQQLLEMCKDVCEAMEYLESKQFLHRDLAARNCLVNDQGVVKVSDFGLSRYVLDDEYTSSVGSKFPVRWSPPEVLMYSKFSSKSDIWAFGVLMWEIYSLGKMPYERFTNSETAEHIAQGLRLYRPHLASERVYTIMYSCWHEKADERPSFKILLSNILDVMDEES

Structure (SMILES): Cc1c(NC(=O)c2cc3c(s2)CCCC3)cccc1-c1cn(C)c(=O)c(Nc2ccc([C@@H]3C(=O)N(C)CCN3C)cc2)n1
clearance [2]: 4.4 mL/min/kg
bioavailability [3]: 35%
inhibition at 10 µM (hERG (KCNH2)): 27%
Activity (Salmonella typhimurium [4]): Non-toxic
Activity (Salmonella typhimurium [5]): Non-toxic
Activity (Salmonella typhimurium [6]): Non-toxic
Activity (Salmonella typhimurium [7]): Non-toxic
solubility [8]: 7 µg/mL (≈ 11.7 µM)
clearance [9]: 43 mL/min/kg
clearance [10]: 14 mL/min/kg
clearance [11]: 33 mL/min/kg
bioavailability [12]: 18%
bioavailability [13]: 16%
bioavailability [14]: 35%
bioavailability [15]: 32%
bioavailability [16]: 16%
Drug metabolism (Homo sapiens [17]): metabolite_detected

Structure (SMILES): Cc1c(NC(=O)c2ccccc2)cccc1-c1cn(C)c(=O)c(Nc2ccc(C(=O)N3CCOCC3)cc2)n1
IC50 [18]: 4600 nM

Structure (SMILES): CCc1ccc(C(=O)Nc2cccc(-c3cn(C)c(=O)c(Nc4ccc(C(=O)N5CCOCC5)cc4)n3)c2C)cc1
IC50 [18]: 225 nM

Structure (SMILES): Cc1c(NC(=O)c2ccc(C3(C)CC3)cc2)cccc1-c1cn(C)c(=O)c(Nc2ccc(C(=O)N3CCOCC3)cc2)n1
IC50 [19]: 30 nM
IC50 [1]: 580 nM

Structure (SMILES): Cc1c(NC(=O)c2cc3c(s2)CCCC3)cccc1-c1cn(C)c(=O)c(Nc2ccc(C(=O)N3CCOCC3)cc2)n1
clearance [2]: 6 mL/min/kg
bioavailability [3]: 29%
IC50 [1]: 230 nM

Structure (SMILES): Cc1c(NC(=O)c2cc3c(s2)CCOC3)cccc1-c1cn(C)c(=O)c(Nc2ccc(C(=O)N3CCOCC3)cc2)n1
IC50 [1]: 1300 nM

Structure (SMILES): Cc1c(NC(=O)c2cc3c(s2)CCCC3)cccc1-c1cn(C)c(=O)c(Nc2cccnc2)n1
clearance [2]: 9.2 mL/min/kg
bioavailability [3]: 53%
IC50 [1]: 5000 nM

Structure (SMILES): Cc1c(NC(=O)c2cc3c(s2)CCCC3)cccc1-c1cn(C)c(=O)c(Nc2ccncn2)n1
clearance [2]: 5.4 mL/min/kg
bioavailability [3]: 37%

Structure (SMILES): Cc1c(NC(=O)c2cc3c(s2)CCCC3)cccc1-c1cn(C)c(=O)c(Nc2ccc3[nH]ccc3c2)n1
IC50 [1]: 1100 nM

Structure (SMILES): Cc1c(NC(=O)c2cc3c(s2)CCCC3)cccc1-c1cn(C)c(=O)c(Nc2ccn3ccnc3c2)n1
IC50 [1]: 1300 nM

Structure (SMILES): Cc1c(NC(=O)c2cc3c(s2)CCCC3)cccc1-c1cn(C)c(=O)c(Nc2ccc(C3CCN(C)CC3)cc2)n1
clearance [2]: 111 mL/min/kg
bioavailability [3]: < 5%
IC50 [1]: 60 nM

Structure (SMILES): Cc1c(NC(=O)c2cc3c(s2)CCCC3)cccc1-c1cn(C)c(=O)c(Nc2ccc(N3CC[C@@H](N(C)C)C3)cc2)n1
IC50 [1]: 800 nM

Structure (SMILES): Cc1c(NC(=O)c2cc3c(s2)CCCC3)cccc1-c1cn(C)c(=O)c(Nc2ccc(-c3ncc[nH]3)cc2)n1
IC50 [1]: 23900 nM

Structure (SMILES): Cc1c(NC(=O)c2cc3c(s2)CCCC3)cccc1-c1cn(C)c(=O)c(Nc2ccc([C@H]3C(=O)N(C)CCN3C)cc2)n1
clearance [2]: 11 mL/min/kg
bioavailability [3]: 41%

Structure (SMILES): Cc1c(N)cccc1-c1cn(C)c(=O)c(Nc2ccc([C@@H]3C(=O)N(C)CCN3C)cc2)n1
Drug metabolism (Homo sapiens [20]): metabolite_detected

Now from value to compound:

IC50 [1]: 150 nM
Structure (SMILES): Cc1c(NC(=O)c2ccc(C(C)(C)C)cc2)cccc1-c1cn(C)c(=O)c(Nc2ccc(C(=O)N3CCOCC3)cc2)n1

IC50 [18]: 860 nM
Structure (SMILES): Cc1ccc(C(=O)Nc2cccc(-c3cn(C)c(=O)c(Nc4ccc(C(=O)N5CCOCC5)cc4)n3)c2C)cc1

IC50 [19]: 230 nM
IC50 [1]: 410 nM
Structure (SMILES): Cc1c(NC(=O)c2ccc(N(C)C)cc2)cccc1-c1cn(C)c(=O)c(Nc2ccc(C(=O)N3CCOCC3)cc2)n1

IC50 [19]: 40 nM
IC50 [1]: 80 nM
Structure (SMILES): CCC(C)(C)c1ccc(C(=O)Nc2cccc(-c3cn(C)c(=O)c(Nc4ccc(C(=O)N5CCOCC5)cc4)n3)c2C)cc1

IC50 [19]: 150 nM
IC50 [1]: 2800 nM
Structure (SMILES): Cc1c(NC(=O)c2ccc(C(C)(C)O)cc2)cccc1-c1cn(C)c(=O)c(Nc2ccc(C(=O)N3CCOCC3)cc2)n1

IC50 [19]: 90 nM
IC50 [1]: 1100 nM
Structure (SMILES): Cc1c(NC(=O)c2ccc([Si](C)(C)C)cc2)cccc1-c1cn(C)c(=O)c(Nc2ccc(C(=O)N3CCOCC3)cc2)n1

IC50 [1]: 490 nM
Structure (SMILES): Cc1c(NC(=O)c2ccc(C(C)(C)C)s2)cccc1-c1cn(C)c(=O)c(Nc2ccc(C(=O)N3CCOCC3)cc2)n1

IC50 [19]: 270 nM
IC50 [1]: 3700 nM
Structure (SMILES): Cc1c(NC(=O)c2cnc(C(C)(C)C)nc2)cccc1-c1cn(C)c(=O)c(Nc2ccc(C(=O)N3CCOCC3)cc2)n1

IC50 [19]: 50 nM
Structure (SMILES): Cc1c(NC(=O)c2ncc(C(C)(C)C)cn2)cccc1-c1cn(C)c(=O)c(Nc2ccc(C(=O)N3CCOCC3)cc2)n1

IC50 [19]: 130 nM
IC50 [1]: 3500 nM
Structure (SMILES): Cc1c(NC(=O)c2ccc(C(C)(C)C)nc2)cccc1-c1cn(C)c(=O)c(Nc2ccc(C(=O)N3CCOCC3)cc2)n1

IC50 [19]: 70 nM
IC50 [1]: 890 nM
Structure (SMILES): Cc1c(NC(=O)c2cnc(C(C)(C)C)cn2)cccc1-c1cn(C)c(=O)c(Nc2ccc(C(=O)N3CCOCC3)cc2)n1

Reference: ChEMBL document CHEMBL3400008, “Potent and selective Bruton's tyrosine kinase inhibitors: discovery of GDC-0834” (Bioorg Med Chem Lett, 2015)
